{"source": "paper PMC10055714", "about": "“The Hypolipidemic Characteristics of a Methanol Extract of Fermented Green Tea and Spore of Eurotium cristatum SXHBTBU1934 in Golden Hamsters” (Nutrients, 2023)", "key": {"[1]": {"system": "oleic acid-induced HepG2 cell line model", "assay": "Bodipy staining of lipid accumulation in oleic acid-induced HepG2 cells", "assay_type": "cell-based", "conditions": "Homo sapiens, 24 h, OA-induced HepG2, read-out: Inhibitory Rate of lipid accumulation; for inhibition at 100 µg/mL: 100 μg/mL", "procedure": "After treatment with compounds for 24 h in a 96-well plate, the supernatant of the HepG2 cells was discarded and cells were washed twice with PBS, then the cells were fixed with 4% paraformaldehyde at room temperature for 20 min. After removing the fixative reagent, the cells were washed twice with PBS. HepG2 cells were stained with 100 μL Bodipy (2 μg/mL, Thermo Fisher Scientific (Waltham, MA, USA)) in the dark at 25 °C for 30 min [30]. The fluorescence was measured using a fluorescence plate reader (Ex = 500 nm, Em = 550 nm, POLARstar, BMG Labtech (Offenburg, Germany)). The inhibition rate was calculated by comparison with the control group which was just treated with DMSO."}, "[2]": {"system": "oleic acid-induced HepG2 cell line model", "assay": "Oil Red O staining of lipid accumulation in oleic acid-induced HepG2 cells", "assay_type": "cell-based", "conditions": "Homo sapiens; Oil Red O assay, OA-induced HepG2, 24 h, area of lipid droplets; read-out: IC50 against lipid accumulation", "procedure": "HepG2 cells were treated with different concentrations of compounds for 24 h, then were washed twice with PBS and fixed with 4% paraformaldehyde for 15–20 min. The cells were washed with PBS and stained with Oil Red O solution (50 µL per well, Sigma-Aldrich) at 25 °C for 1 h. After washed with PBS for 3–5 times, the lipid droplets and cell morphology were observed by a light microscope and photographed. The area of lipid droplets was statistically compared for IC50 calculation with the control group which was treated with DMSO using Image J software."}, "[3]": {"assay": "CCK-8 cell viability assay", "conditions": "human, HepG2 cells", "protocol": "Human hepatoma HepG2 cells were obtained from the Beijing Union Medical Cell Resource Center (Basic Medical Cell Center, Institute of Basic Medical Sciences, Chinese Academy of Medical Sciences). The cells were cultured in DMEM containing 10% FBS and 1% penicillin–streptomycin and incubated with 5% CO2 at 37 °C. Cells were allowed to grow to approximately 80% confluency and were sub-cultured at a ratio of 1:3 [27]. In this study, to simulate the process of nonalcoholic fatty liver disease in vitro, 0.2 mM oleic acid (OA) was added to the culture medium for 48 h to induce human HepG2 to establish a nonalcoholic fatty liver cell model [28].\nHepG2 cells were seeded into 96-well plates after achieving logarithmic growth and cultured overnight at 37 °C with 5% CO2. After treatment with different concentrations of compounds (dissolved in DMSO) for 24 h, 10 μL CCK-8 solution (Cell Counting Kit-8, Sigma-Aldrich (St. Louis, MO, USA)) was added to each well and the plate was incubated for 2 h in the incubator. Then, the absorbance at 450 nm was measured using a microplate reader. The normal control group was treated with the same amount of DMSO as the experiment group [29]. Cell viability was calculated by: cell viability (%) = (ODdrug/ODcontrol) × 100%."}}}
{"smiles": "C=CC(C)(C)c1[nH]c2c(CC3OC3(C)C)cccc2c1C=C1NC(=O)C(C)NC1=O", "note": "(centres unmarked) [Compound 1, variecolorin P]", "values": [{"measurement": "inhibition at 100 µg/mL", "setting": "[1]", "value": 37.3, "unit": "%"}, {"measurement": "IC50", "setting": "[2]", "value": 127, "unit": "nM"}, {"measurement": "viability at 24 h, 100 μg/mL", "setting": "[3]", "value": 110, "unit": "%"}]}
{"smiles": "C=CC(C)(C)c1[nH]c2cc(CC=C(C)C)ccc2c1/C=C1\\NC(=O)[C@H](C)NC1=O", "note": "[Compound 3, neoechinulin D]", "values": [{"measurement": "inhibition at 100 µg/mL", "setting": "[1]", "value": -67.3, "unit": "%"}, {"measurement": "viability at 24 h, 100 μg/mL", "setting": "[3]", "value": 11.2, "unit": "%"}]}
{"smiles": "C=CC(C)(C)c1[nH]c2c(CC=C(C)C)cccc2c1/C=C1\\NC(=O)[C@H](C)NC1=O", "note": "[Compound 4, variecolorin G]", "values": [{"measurement": "inhibition at 100 µg/mL", "setting": "[1]", "value": -15.3, "unit": "%"}]}
{"smiles": "C=CC(C)(C)c1[nH]c2c(CC=C(C)C)cc(CC=C(C)C)cc2c1C[C@@H]1NC(=O)[C@H](C)NC1=O", "note": "[Compound 5, echinulin]", "values": [{"measurement": "inhibition at 25 µg/mL", "setting": "[1]; 25 μg/mL", "value": 5.46, "unit": "%"}, {"measurement": "viability at 24 h, 25 μg/mL", "setting": "[3]", "value": 94.5, "unit": "%"}]}
